Measured values published in US10556943B2, “HLA-DR binding peptides and their uses” (priority 2007, dated 2020).
Ends that are not written are not given here.

Legend:
purified HLA DRB1*0404 = target: T1, purified HLA DRB1*0404 (Homo sapiens, UniProt P01903+P01911, A100R/A169T/F76Y/I96L/K127E/L162R/M171V/N62H/P40V/Q125Y/R42H/S133A/S149N/S66Y/V209L/W38E); assay: HLA-DR radioligand binding inhibition assay, DRB1*0404
T1 construct: MHC molecules utilized were purified from EBV transformed homozygous cell lines or single MHC allele transfected 721.221, C1R, or fibroblast lines; made in house; host or cells: EBV transformed homozygous cell lines or single MHC allele transfected 721.221, C1R, or fibroblast lines
Protocol: (§1) Fifteen distinct HLA-DR molecules were used in quantitative assays to measure the binding of peptides to solubilized HLA-DR molecules. […] Briefly, columns of inactivated Sepharose CL4B and Protein A Sepharose were used as pre-columns. HLA-DR molecules were captured by passage of lysates over LB3.1 monoclonal antibody (anti-HLA-DRA) columns. Antibody columns were washed with 10 mM Tris-HCL, pH8.0 with 1% (v/v) NP-40, followed by PBS containing 0.4% (w/v) n-octylglucoside. […] The pH was reduced to 8.0 and the eluates were concentrated by centrifugation in Centriprep 30 concentrators at 2000 rpm (Amicon, Beverly, Mass.).
(§2) Briefly, 1-10 nM of radiolabeled peptide was co-incubated for 2 days at either room temperature or 37° C. with 1 μM to 1 nM purified HLA-DR molecules in the presence of a cocktail of protease inhibitors. Assays were performed at various pH conditions, ranging from pH 4 to pH 7. […] After incubation, the percentage of HLA-DR-bound radioactivity is determined by capturing HLA-DR/peptide complexes on Optiplates (Packard Instruments, Meriden, Conn.) coated with the LB3.1 antibody and determining bound counts per minute using the TopCount microscintillation counter (Packard Instruments). […] Competitor peptides are tested in 2-4 complete, independent experiments, at concentrations ranging from 30 μg/mL to 300 pg/mL.

purified HLA DRB5*0101 = target: T2, purified HLA DRB5*0101 (Homo sapiens, UniProt P01903+Q30154); assay: HLA-DR radioligand binding inhibition assay, DRB5*0101
T2 construct: MHC molecules utilized were purified from EBV transformed homozygous cell lines or single MHC allele transfected 721.221, C1R, or fibroblast lines; made in house; host or cells: EBV transformed homozygous cell lines or single MHC allele transfected 721.221, C1R, or fibroblast lines
Protocol: as §1, §2

purified HLA DRB1*1101 = target: T3, purified HLA DRB1*1101 (Homo sapiens, UniProt P01903+P01911, A100R/A169T/A87E/I96F/K41T/L162R/M171V/P40S/Q125H/Q178H/Q39Y/Q99D/R42S/S66Y/T262R/V115G/W38E); assay: HLA-DR radioligand binding inhibition assay, DRB1*1101
T3 construct: MHC molecules utilized were purified from EBV transformed homozygous cell lines or single MHC allele transfected 721.221, C1R, or fibroblast lines; made in house; host or cells: EBV transformed homozygous cell lines or single MHC allele transfected 721.221, C1R, or fibroblast lines
T3 sequence (P01903 26-254, other chains not shown): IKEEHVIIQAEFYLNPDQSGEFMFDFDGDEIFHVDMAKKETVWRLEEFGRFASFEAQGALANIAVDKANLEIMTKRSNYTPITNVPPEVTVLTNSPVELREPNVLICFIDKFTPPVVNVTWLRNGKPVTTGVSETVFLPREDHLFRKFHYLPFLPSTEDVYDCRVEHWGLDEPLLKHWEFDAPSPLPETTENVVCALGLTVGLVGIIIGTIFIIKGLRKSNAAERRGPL
Protocol: as §1, §2

purified HLA DRB1*1302 = target: T4, purified HLA DRB1*1302 (Homo sapiens, UniProt P01903+P01911, A100E/A169T/K41T/L162R/M171V/P40S/Q125H/Q178H/Q39Y/Q99D/R42S/S66N/T262R/V115G/W38E/Y61H); assay: HLA-DR radioligand binding inhibition assay, DRB1*1302; details: column 6 of second part of Table I
T4 construct: MHC molecules utilized were purified from EBV transformed homozygous cell lines or single MHC allele transfected 721.221, C1R, or fibroblast lines; made in house; host or cells: EBV transformed homozygous cell lines or single MHC allele transfected 721.221, C1R, or fibroblast lines
T4 sequence (P01903 26-254, other chains not shown): as above
Protocol: (§3) Fifteen distinct HLA-DR molecules were used in quantitative assays to measure the binding of peptides to solubilized HLA-DR molecules. […] Briefly, columns of inactivated Sepharose CL4B and Protein A Sepharose were used as pre-columns. HLA-DR molecules were captured by passage of lysates over LB3.1 monoclonal antibody (anti-HLA-DRA) columns. Antibody columns were washed with 10 mM Tris-HCL, pH8.0 with 1% (v/v) NP-40, followed by PBS containing 0.4% (w/v) n-octylglucoside.
(§4) Briefly, 1-10 nM of radiolabeled peptide was co-incubated for 2 days at either room temperature or 37° C. with 1 μM to 1 nM purified HLA-DR molecules in the presence of a cocktail of protease inhibitors. Assays were performed at various pH conditions, ranging from pH 4 to pH 7. […] After incubation, the percentage of HLA-DR-bound radioactivity is determined by capturing HLA-DR/peptide complexes on Optiplates (Packard Instruments, Meriden, Conn.) coated with the LB3.1 antibody and determining bound counts per minute using the TopCount microscintillation counter (Packard Instruments).

purified HLA DRB1*0701 = target: T5, purified HLA DRB1*0701 (Homo sapiens, UniProt P01903+P01911, A100R/A102G/A103Q/D57E/D86V/E43K/F76Y/K127E/L162R/M171V/P40G/Q125H/Q99D/R33Q/R42Y/R54Q/S133A/S66F/T210M/V115G/Y107V/Y59L/Y89S); assay: HLA-DR radioligand binding inhibition assay, DRB1*0701
T5 construct: MHC molecules utilized were purified from EBV transformed homozygous cell lines or single MHC allele transfected 721.221, C1R, or fibroblast lines; made in house; host or cells: EBV transformed homozygous cell lines or single MHC allele transfected 721.221, C1R, or fibroblast lines
Protocol: as §3, §4

purified HLA DRB3*0101 = target: T6, purified HLA DRB3*0101 (Homo sapiens, UniProt P01903+P79483); assay: HLA-DR radioligand binding inhibition assay, DRB3*0101
T6 construct: MHC molecules utilized were purified from EBV transformed homozygous cell lines or single MHC allele transfected 721.221, C1R, or fibroblast lines; made in house; host or cells: EBV transformed homozygous cell lines or single MHC allele transfected 721.221, C1R, or fibroblast lines
Protocol: as §1, §2

purified HLA DRB1*0405 = target: T7, purified HLA DRB1*0405 (Homo sapiens, UniProt P01903+P01911, A100R/A169T/D86S/F76Y/I96L/K127E/L162R/M171V/N62H/P40V/Q125Y/R42H/S133A/S149N/S66Y/V115G/V209L/W38E); assay: HLA-DR radioligand binding inhibition assay, DRB1*0405
T7 construct: MHC molecules utilized were purified from EBV transformed homozygous cell lines or single MHC allele transfected 721.221, C1R, or fibroblast lines; made in house; host or cells: EBV transformed homozygous cell lines or single MHC allele transfected 721.221, C1R, or fibroblast lines
Protocol: as §1, §2

purified HLA DRB4*0101 = target: T8, purified HLA DRB4*0101 (Homo sapiens, UniProt P01903+P13762, G164S); assay: HLA-DR radioligand binding inhibition assay, DRB4*0101
T8 construct: MHC molecules utilized were purified from EBV transformed homozygous cell lines or single MHC allele transfected 721.221, C1R, or fibroblast lines; made in house; host or cells: EBV transformed homozygous cell lines or single MHC allele transfected 721.221, C1R, or fibroblast lines
Protocol: as §1, §2

With CC[C@H](C)[C@H](NC(=O)[C@H](CCCCN)NC(=O)[C@H](CCCNC(=N)N)NC(=O)[C@@H](N)CCSC)C(=O)N[C@H](C(=O)N[C@@H](C)C(=O)N[C@H](C(=O)N[C@@H](Cc1c[nH]c2ccccc12)C(=O)N[C@@H](CCSC)C(=O)N[C@@H](CC(C)C)C(=O)N[C@@H](CCC(=O)O)C(=O)N[C@H](C(=O)N[C@@H](CS)C(=O)N[C@@H](CCC(=O)O)C(=O)N[C@@H](CCC(=O)O)C(=O)O)C(C)C)[C@@H](C)O)C(C)C [Peptide 9019.0151] the IC50 (purified HLA DRB1*0404) was > 20 µM, the IC50 (purified HLA DRB5*0101) was 17 µM and the IC50 (purified HLA DRB1*1101) was > 20 µM.

In the case of CC(C)C[C@H](NC(=O)[C@@H]1CCCN1C(=O)[C@H](CO)NC(=O)[C@@H]1CCCN1C(=O)[C@H](CC(=O)O)NC(=O)[C@H](Cc1c[nH]cn1)NC(=O)[C@@H](NC(=O)[C@@H]1CCCN1C(=O)[C@H](CC(C)C)NC(=O)[C@H](CO)NC(=O)[C@H](CCC(N)=O)NC(=O)[C@H](CC(C)C)NC(=O)CNC(=O)[C@H](CCCCN)NC(=O)[C@H](C)N)[C@@H](C)O)C(=O)O [Peptide 9019.0098], the IC50 (purified HLA DRB5*0101) is reported as > 20 µM.

With KELAVFREKVTEQHR [Peptide 9019.0186] the IC50 (purified HLA DRB1*1302) was > 20 µM and the IC50 (purified HLA DRB1*0701) was > 20 µM.

In the case of CSCC[C@H](NC(=O)[C@H](CCCNC(=N)N)NC(=O)[C@H](CO)NC(=O)[C@H](Cc1ccccc1)NC(=O)[C@H](CCC(=O)O)NC(=O)[C@H](CO)NC(=O)[C@@H](NC(=O)[C@H](CC(C)C)NC(=O)[C@H](CCC(=O)O)NC(=O)[C@H](CCCNC(=N)N)NC(=O)[C@H](Cc1ccccc1)NC(=O)[C@H](CCCNC(=N)N)NC(=O)[C@@H]1CCCN1C(=O)[C@@H](N)CCCNC(=N)N)C(C)C)C(=O)N[C@@H](C)C(=O)O [Peptide 9019.0095], the IC50 (purified HLA DRB3*0101) is reported as > 20 µM.

With CC[C@H](C)[C@H](NC(=O)[C@H](CCCCN)NC(=O)[C@H](CCC(N)=O)NC(=O)[C@@H](N)CCC(N)=O)C(=O)N[C@@H](CCCNC(=N)N)C(=O)N[C@@H](CCCCN)C(=O)N[C@@H](Cc1ccc(O)cc1)C(=O)N[C@H](C(=O)N[C@@H](CCSC)C(=O)N[C@@H](CCCNC(=N)N)C(=O)N[C@@H](CCCNC(=N)N)C(=O)N[C@@H](CC(C)C)C(=O)N[C@@H](CC(C)C)C(=O)N[C@@H](CCC(N)=O)C(=O)N[C@@H](CCC(=O)O)C(=O)O)[C@@H](C)O [Peptide 9019.0070] the IC50 (purified HLA DRB1*0405) was > 20 µM.

CSCC[C@H](NC(=O)[C@H](CC(C)C)NC(=O)[C@H](CCC(=O)O)NC(=O)[C@H](Cc1c[nH]c2ccccc12)NC(=O)[C@@H](NC(=O)[C@@H](NC(=O)[C@@H](NC(=O)CNC(=O)[C@H](Cc1ccc(O)cc1)NC(=O)[C@H](CO)NC(=O)[C@H](Cc1c[nH]c2ccccc12)NC(=O)[C@@H](NC(=O)[C@H](CC(=O)O)NC(=O)[C@@H](N)CO)C(C)C)C(C)C)[C@@H](C)O)C(C)C)C(=O)N[C@H](C(=O)O)[C@@H](C)O [Peptide 9019.0089] was tested, and the IC50 (purified HLA DRB4*0101) was > 20 µM.
